Where two headings read alike, the source gives them in different places.
Legend:
β1-adrenergic receptor = β1-adrenergic receptor (Homo sapiens (Human), UniProt P08588); assay: cAMP Gs dynamic HTRF assay, β1 expressing CHO cells; type: cell-based; details: B1-AR
Protocol: (§1) cAMP homogeneous time-resolved fluorescence (HTRF). Compound efficacy was determined using the cAMP Gs dynamic HTRF assay (Cisbio, catalog #62AM4PEC) largely following the manufacturer's instructions, also detailed below.
(§2) Compound preparation. […] Standard serial dilution curves were 10-point, 5-fold dilutions starting from a highest concentration of 10 μM. […] Assay plates were centrifuged at 500×g for 10 seconds. Compounds and IBMX were prepared at 2× final dose to compensate for addition of cells.
(§3) Cell preparation. 1× stimulation buffer, washing PBS (Dulbecco's phosphate-buffered saline, −Mg −Ca; Caisson Labs, catalog #PBL01), assay PBS (Dulbecco's phosphate-buffered saline, +Mg, +Ca; Caisson Labs, catalog #PBL02) and Versene (0.02% EDTA disodium salt solution in PBS without calcium or magnesium; Caisson Labs, catalog #EDL01) were pre-warmed to 37° C. Cells expressing beta-adrenergic receptor were washed in washing PBS to remove growth medium and then released from the surface by incubating with Versene for 5-10 minutes at 37° C. Cells were harvested using assay PBS, counted manually by hemocytometer or by an automated cell counter, pelleted by centrifugation (200×g, 5 minutes) and resuspended in 37° C. 1× stimulation buffer to a final density of 1.5×10^6 cells/mL. 5 μL of the suspended cell solution (7500 cell total) were added to all wells of the 384 well assay plate, the assay plate was covered with an Axygen® plate seal (Corning PCR-SP) and incubated in a humidified 37° C. environment supplemented with 5% CO2 for 30 minutes.
(§4) HTRF reagent addition, reading and data analysis. After 30 minutes of cell stimulation with test compound, the assay plates were centrifuged at 500×g for 10 seconds, and incubation was stopped with the addition of 5 μL cAMP-D2 acceptor, diluted 1:21 in detection and lysis buffer 2 (Cisbio 62CL2FDF) was added to all cells. Subsequently, 5 μL Anti-cAMP-Eu Donor, diluted 1:21 in detection and lysis buffer 2, was added to cells. Plates were sealed and reactions gently ‘vortexed’ at 900 rpm on a Heidolph Titramax 1000 for at least 30 minutes at room temperature. Plates were centrifuged again at 500×g for 10 seconds, and HTRF was measured using a Tecan Spark plate reader at 50 flashes per well. […] Potency estimates (EC50) were derived from the four-parameter nonlinear regression of the concentration-effect curve and an estimate of relative efficacy was determined by comparing the magnitude of the test compound HTRF signal window (min−max dose) with the signal window of the full agonist control, isoproterenol.

β2 adrenergic receptor = β2 adrenergic receptor (Homo sapiens (Human), UniProt P07550); assay: cAMP Gs dynamic HTRF assay, β2 expressing CHO cells; type: cell-based; details: B2-AR
β2 adrenergic receptor, sequence (P07550 whole entry, species assumed): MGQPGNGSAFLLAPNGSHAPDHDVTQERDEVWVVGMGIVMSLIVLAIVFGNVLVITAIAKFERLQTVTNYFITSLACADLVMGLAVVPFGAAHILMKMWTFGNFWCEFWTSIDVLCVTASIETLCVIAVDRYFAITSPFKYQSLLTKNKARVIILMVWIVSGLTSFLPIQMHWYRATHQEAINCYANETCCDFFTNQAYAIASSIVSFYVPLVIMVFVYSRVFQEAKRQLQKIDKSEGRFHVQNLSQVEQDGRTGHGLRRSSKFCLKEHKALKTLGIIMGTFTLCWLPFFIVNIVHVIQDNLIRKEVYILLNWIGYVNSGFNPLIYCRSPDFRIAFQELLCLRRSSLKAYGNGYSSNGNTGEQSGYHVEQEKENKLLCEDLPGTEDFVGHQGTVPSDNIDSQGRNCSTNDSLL
Protocol: as §1, §2, §3, §4

[1] = Average pEC50 [Receptor subtype: B1-AR, Cell type: CHO-K1 (HitHunter)], CHO-K1 (HitHunter)
[2] = Average pEC50 [Receptor subtype: B2-AR, Cell type: CHO-K1 (HitHunter)], CHO-K1 (HitHunter)
[3] = CHO-K1 (HitHunter), read-out: Average pEC50 [Receptor subtype: B1-AR, Cell type: CHO-K1 (HitHunter)] (converted)
[4] = CHO-K cells, read-out: Average EC50 [Receptor subtype: B1-AR, Cell type: CHO-K]
[5] = CHO-K1 (HitHunter), read-out: Average pEC50 [Receptor subtype: B2-AR, Cell type: CHO-K1 (HitHunter)] (converted)
[6] = CHO-K cells, read-out: Average EC50 [Receptor subtype: B2-AR, Cell type: CHO-K]

β1-adrenergic receptor, sequence (P08588 whole entry, species assumed): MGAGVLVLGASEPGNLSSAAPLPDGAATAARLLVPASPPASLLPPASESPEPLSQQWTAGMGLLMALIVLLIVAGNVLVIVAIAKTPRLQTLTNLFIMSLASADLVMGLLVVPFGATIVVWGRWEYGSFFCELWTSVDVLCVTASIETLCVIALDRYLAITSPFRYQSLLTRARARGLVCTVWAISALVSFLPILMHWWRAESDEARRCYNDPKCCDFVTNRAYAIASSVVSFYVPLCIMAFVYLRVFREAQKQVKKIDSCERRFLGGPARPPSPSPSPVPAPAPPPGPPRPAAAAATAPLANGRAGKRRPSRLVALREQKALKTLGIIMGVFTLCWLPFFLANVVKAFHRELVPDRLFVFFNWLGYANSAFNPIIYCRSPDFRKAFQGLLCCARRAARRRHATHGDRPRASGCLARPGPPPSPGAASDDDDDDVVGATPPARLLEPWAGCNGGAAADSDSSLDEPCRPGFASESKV

Row | Structure (SMILES) | EC50 (β1-adrenergic receptor; [1]) | EC50 (β2 adrenergic receptor; [2]) | EC50 (β1-adrenergic receptor; [3]) | EC50 (β1-adrenergic receptor; [4]) | EC50 (β2 adrenergic receptor; [5]) | EC50 (β2 adrenergic receptor; [6]) | Average pEC50 [Receptor subtype: B1-AR; Cell type: CHO-K1 (HitHunter)] (β1-adrenergic receptor; CHO-K1 (HitHunter))
1 | COc1ccc(C[C@@H](C)NC[C@H](O)c2cnc(C)nc2C)cc1 [Compound 03-270] | > 1000 nM | 10 to 100 nM |  |  |  |  | 
2 | CC1(NC[C@H](O)c2cccc(C(F)(F)F)n2)CCOCC1 [Compound 03-23] |  |  | 100 to 1000 nM | 100 to 1000 nM | 100 to 1000 nM | 100 to 1000 nM | 
3 | CC(C)(C)NC[C@H](O)c1ccnc(C#N)c1 [Compound 03-110] |  |  | > 1000 nM |  | > 1000 nM |  | 
4 | Cc1cc([C@H](O)CNC(C)(C)C)ccn1 [Compound 03-109] |  |  | 100 to 1000 nM |  | 100 to 1000 nM |  | 
5 | CC(C)(C)NC[C@@H](O)c1cccc(C2CCOCC2)n1 [Compound 03-122] |  |  | > 1000 nM | > 1000 nM | 100 to 1000 nM | 100 to 1000 nM | 
6 | CC(C)(C)NC[C@H](O)c1cccc(N)n1 [Compound 03-98] |  |  | > 1000 nM |  | > 1000 nM |  | 
7 | CC(C)(C)NC[C@H](O)c1ccc(C#N)cn1 [Compound 03-212] |  |  | > 1000 nM |  | 100 to 1000 nM |  | 
8 | CC(C)NC[C@@H](O)c1cccc(C(F)(F)F)n1 [Compound 03-36] |  |  | > 1000 nM | > 1000 nM | > 1000 nM | > 1000 nM | 
9 | CC(C)(C)NC[C@@H](O)c1cccc(-n2cccc2)n1 [Compound 03-124] |  |  |  | 100 to 1000 nM | 10 to 100 nM | 10 to 100 nM | C (C = <7-6)
10 | CC(C)(C)NC[C@H](O)c1cccc(C(N)=O)n1 [Compound 03-17] |  |  |  | > 1000 nM | > 1000 nM | > 1000 nM | D (D < 6)
11 | CC1(NC[C@@H](O)c2cccc(C(F)(F)F)n2)CC1 [Compound 03-13] |  |  | > 1000 nM | > 1000 nM | > 1000 nM | > 1000 nM | 
12 | Cn1ccc(-c2cccc([C@H](O)CNC(C)(C)C)n2)n1 [Compound 03-226] |  |  | > 1000 nM |  | 100 to 1000 nM |  | 
13 | CNCc1cccc([C@@H](O)CNC(C)(C)C)n1 [Compound 03-252] |  |  | > 1000 nM |  | > 1000 nM |  | 
14 | CC(C)(C)NC[C@H](O)c1cccnc1-n1ccnn1 [Compound 03-241] |  |  | > 1000 nM |  | > 1000 nM |  | 
15 | CC(C)(C)NC[C@H](O)c1cccnc1N1CCCC1 [Compound 03-60] |  |  |  | > 1000 nM | > 1000 nM | > 1000 nM | D (D < 6)
16 | CN(C)C(=O)c1cccc([C@@H](O)CNC(C)(C)C)n1 [Compound 03-7] |  |  |  | > 1000 nM | 100 to 1000 nM | 100 to 1000 nM | D (D < 6)
17 | Cc1cccc(-c2cccc([C@H](O)CNC(C)(C)C)n2)c1 [Compound 03-148] |  |  | 100 to 1000 nM | 100 to 1000 nM | 100 to 1000 nM | 100 to 1000 nM | 
18 | Cc1ccc([C@H](O)CNC(C)(C)C)nc1 [Compound 03-128] |  |  | > 1000 nM | > 1000 nM | > 1000 nM | > 1000 nM | 
19 | CC(C)(C)NC[C@H](O)c1cccc(NC2CC(F)(F)C2)n1 [Compound 03-263] |  |  | 10 to 100 nM |  | < 10 nM |  | 
20 | COc1ccc(CC(C)(C)NC[C@@H](O)c2cccc(C(F)(F)F)n2)cc1 [Compound 03-183] |  |  | > 1000 nM | > 1000 nM | 100 to 1000 nM | 100 to 1000 nM | 

Row | Structure (SMILES) | EC50 (β1-adrenergic receptor; [1]) | EC50 (β2 adrenergic receptor; [2]) | EC50 (β1-adrenergic receptor; [3]) | EC50 (β1-adrenergic receptor; [4]) | EC50 (β2 adrenergic receptor; [5]) | EC50 (β2 adrenergic receptor; [6]) | Average pEC50 [Receptor subtype: B1-AR; Cell type: CHO-K1 (HitHunter)] (β1-adrenergic receptor; CHO-K1 (HitHunter))
21 | CNC(=O)c1cccc([C@@H](O)CNC(C)(C)C)n1 [Compound 03-85] |  |  | > 1000 nM |  | 100 to 1000 nM |  | 
22 | CC(C)(C)NC[C@H](O)c1cccc(-c2cccnc2)n1 [Compound 03-151] |  |  |  | 10 to 100 nM | < 10 nM | < 10 nM | B (B = 8-7)
23 | CC(C)(C)NC[C@@H](O)c1ccc2cccc(C(F)(F)F)c2n1 [Compound 03-164] |  |  |  | 100 to 1000 nM |  | < 10 nM | 
24 | CC(C)(C)NC[C@@H](O)c1cccc(-c2ccncc2)n1 [Compound 03-220] |  |  | > 1000 nM |  | 10 to 100 nM |  | 
25 | CC(C)c1ncccc1[C@@H](O)CNC(C)(C)C [Compound 03-51] |  |  |  | > 1000 nM | > 1000 nM | > 1000 nM | D (D < 6)
26 | CNc1ccc([C@@H](O)CN[C@H](C)Cc2ccc(OC)cc2)c(C)n1 [Compound 03-277] | > 1000 nM | < 10 nM |  |  |  |  | 
27 | [2H]C([2H])([2H])Nc1cccc([C@@H](O)CNC(C)(C)C)n1 [Compound 03-279] |  |  | > 1000 nM |  | 100 to 1000 nM |  | 
28 | Cc1ncc([C@@H](O)CNC(C)(C)C)c(C)n1 [Compound 03-261] |  |  | > 1000 nM |  | 100 to 1000 nM |  | 
29 | CC(C)(C)NC[C@H](O)c1cccc(Br)n1 [Compound 03-32] |  |  | < 10 nM | < 10 nM | 10 to 100 nM | 10 to 100 nM | 
30 | CC(C)(C)NC[C@H](O)c1cccnc1-n1nccn1 [Compound 03-74] |  |  | > 1000 nM |  | > 1000 nM |  | 
31 | CC(C)(C)NC[C@H](O)c1cccc(-c2ccncc2)n1 [Compound 03-221] |  |  | 10 to 100 nM |  | < 10 nM |  | 
32 | O[C@H](CNC1CCC1)c1cccc(C(F)(F)F)n1 [Compound 03-34] |  |  |  | > 1000 nM | > 1000 nM | > 1000 nM | D (D < 6)
33 | CC(C)(C)NC[C@H](O)c1cccc(OC(C)(C)C)n1 [Compound 03-196] |  |  | 10 to 100 nM |  | < 10 nM |  | 
34 | CC(C)(C)NC[C@@H](O)c1cccc(C(F)(F)F)n1 [Compound 03-43] |  |  | > 1000 nM | > 1000 nM | 100 to 1000 nM | > 1000 nM | 
35 | COc1ccc(C[C@@H](C)NC[C@H](O)c2ccc(NC3CC3)nc2C)cc1 [Compound 03-275] | > 1000 nM | 10 to 100 nM |  |  |  |  | 
36 | Cc1ccccc1-c1cccc([C@@H](O)CNC(C)(C)C)n1 [Compound 03-149] |  |  | 100 to 1000 nM | 100 to 1000 nM | < 10 nM | < 10 nM | 
37 | CC(C)(C)NC[C@H](O)c1cccc(-c2ccccc2)n1 [Compound 03-28] |  |  | 10 to 100 nM | 10 to 100 nM | < 10 nM | < 10 nM | 
38 | CC(C)(C)NC[C@@H](O)c1cccc(-c2cccc(Cl)c2)n1 [Compound 03-130] |  |  |  | 100 to 1000 nM | 10 to 100 nM | 10 to 100 nM | C (C = <7-6)
39 | CC(C)(C)NC[C@H](O)c1cccc(C(C)(C)CN)n1 [Compound 03-280] |  |  | > 1000 nM |  | > 1000 nM |  | 

Reference: patent US10947196B2, “Beta adrenergic agonist and methods of using the same” (CURASEN THERAPEUTICS, INC., priority 2019, dated 2021)
